Test results: patent US20040028631A1, “Cosmetic formulations” (priority 2000, published 2004)
Like-named read-outs stand apart in the source and are kept apart here.

Assays:
[1] = Optimum concentration (substance data tables; stabilizing effect)
Text: With respect to the stabilizing effect of optically active DIP it is most important that the substance is present in the form of potassium salt.

[2] = tested on: model proteins; test: Protection of model proteins; type: biochemical; conditions: protecting model proteins
Description: Application related examinations were conducted with di-glycerol phosphate (DGP) aimed at protecting model proteins. As a penetration intensifier di-glycerol phosphate moreover ensures that these macro-molecules are also transported through several skin layers until they have reached their target destination.

[3] = Water binding capability; type: physicochemical
Text: Moreover, the compound is thus of interest for the regulation and balancing of the skin's moisture characteristics. This is at least of additional advantage when the compound is used as a cosmetic agent.

[4] = Solubility in water; type: physicochemical
[5] = Biocompatibility / allergenic potential
[6] = Chemical, physical, pH and light stability; type: physicochemical
[7] = tested on: proteins; test: Protection against thermally induced denaturation of proteins; type: biochemical
Text: Little is known at the present time about the effect of DIP in general. This mainly due to the fact that only very little of this compound is available.

capability of binding water [3] | solubility in water [4] | biocompatibility [5] | chemical and physical stability [6] | chemical and physical stability ([6]; listed as di-myo-inositol phosphate) | SMILES | Optimum concentration [1] [mM] | protective potential compared with glycerine [2] | protective effect in respect of the thermally induced denaturation of proteins ([7]; first experiments) | protective effect in comparison with other compatible solutes ([7]; thermally induced denaturation of proteins)
highly capable of binding water | Excellent | High | High | – | O=P(O)(OCC(O)CO)OCC(O)CO (stereo not shown) [DGP, di-glycerol phosphate] | 100 to 200 | by far better protective potential | – | –
highly capable of binding water | Excellent | – | High | great stability | O=P(O)(O[C@@H]1[C@H](O)[C@H](O)[C@@H](O)[C@H](O)[C@H]1O)O[C@@H]1[C@@H](O)[C@H](O)[C@@H](O)[C@H](O)[C@@H]1O [DIP, di-myo-inositol phosphate] | 250 to 400 | – | excellent | far and decidedly better
